{
  "source": "paper PMC10254233",
  "about": "“Synthesis and In Vitro Biological Evaluation of p-Carborane-Based Di-tert-butylphenol Analogs” (Molecules, 2023)",
  "key": {"A375 melanoma [1]": {"tested_on": "A375 melanoma", "experiment": "Cell viability, MTT assay, A375", "format": "cell-based, human", "details": "Homo sapiens, A-375; 72 h, mean ± SD", "description": "(§1) Five human cell lines (A375 melanoma, A549 lung adenocarcinoma, HCT116 and HT29 colorectal carcinoma, MDA-MB-231 triple-negative breast adenocarcinoma) were used to study the antitumor effects of the di-tert-butylphenols and their respective carborane analogs. All selected cell lines were derived from inflammation-associated tumors.\n(§2) After the incubation period, the supernatant was discarded from the wells, and the cells were washed two times with 200 µL of PBS. Next, MTT solution at a final concentration of 0.5 mg/mL was added and incubated at 37 °C until purple formazan crystals were formed (30 min to one hour). After incubation, the dye was discarded. In order to dissolve the formed formazan crystals DMSO was added, and the absorbance was measured at λmax = 540 nm, with the reference/background wavelength of 670 nm. All results are expressed as a percentage of the control value which was arbitrary set to 100%. After 72 h treatment, cells were washed with 200 µL of PBS and fixed with 4% paraformaldehyde (PFA) for 15 min at room temperature (RT). Next, cells were stained with 1% CV solution. After 20 min, cells were washed in tap water and dried on air. Dye was dissolved in 33% acetic acid and the absorbance was measured at λmax = 540 nm, with the reference/background wavelength of 670 nm. Results were expressed as a percentage of the control value which was arbitrary set to 100%.\n(§3) 1. General methods, materials, and procedures\n(§4) 1.1.1. Reagents and cells\n(§5) Reagents and cells were obtained from following manufacturers: Capricorn Scientific GmbH (Hessen, Germany) – Culture medium RPMI-1640, Dulbecco's Modified Eagle Medium (DMEM), and fetal bovine serum (FBS). Serva (Heidelberg, Germany) – Paraformaldehyde (PFA). Sigma (St. Louis, MO, USA) – Ethylenediaminetetraacetic acid (EDTA), Dimethyl sulfoxide (DMSO), chloroquine, CV, Triton X-100, RNase, PI, PBS, 3-MA, CFSE, and fluorescent mounting medium. AppliChem (MO, USA) –MTT. Thermo Fisher Scientific (Waltham, MA, USA) – DHR. R&D Systems (Minneapolis, MN, USA) – ApoStat. BD (Pharmingen, San Diego, SAD) – Annexin V-FITC (AnnV). Biological Industries (Cromwell, CT, USA) – Penicillin Streptomycin solution. American Type Culture Collection (ATCC, Manassas, Virginia, USA) – Human lung carcinoma (A549), human breast adenocarcinoma (MDA-MB-231), human colorectal ade-nocarcinoma (HT-29), human colorectal carcinoma (HCT116) and human melanoma (A375).\n(§6) Cell lines (A375, HCT116, HT-29 and MDA-MB-231) were cultivated in HEPES-buffered RPMI-1640 medium while A549 cell line was cultivated in Dulbecco's Modified Eagle Medium (DMEM) which were previously supplemented with 10% heat-inactivated FBS, penicillin (100 units/mL), and streptomycin (100 μg/mL). All cells were kept at 37 °C in a humidified atmosphere with 5% CO2. For viability determi-nation cells were seeded at following densities in 96-well plates: 4 x 10^3 cells/well (A375, HT-29 and MDA-MB-231), 5 x 10^3 cells/well (HCT116), and 3 x 10^3 cells/well (A549). […]\n(§7) Afterwards, cells were washed with phosphate-buffered saline (PBS) and stained with AnnV (15 μg/mL) and PI (15 μg/mL). […]\n(§8) PBS and analyzed using flow cytometry. HCT116 cells were stained with 1 µg/mL of AO solution for 15 min at 37 °C to detect the presence of autophagic cell death. Afterwards cells were washed with PBS, resuspended and analyzed by flow cytometry (CyFlow® Space Partec using the PartecFloMax® software"}, "A549 lung adenocarcinoma [2]": {"tested_on": "A549 lung adenocarcinoma", "experiment": "Cell viability, MTT assay, A549", "format": "cell-based, human", "details": "Homo sapiens, A549; 72 h, mean ± SD", "description": "as §1, §2, §3, §4, §5, §6\n(§9) Afterwards, cells were washed with phosphate-buffered saline (PBS) and stained with AnnV (15 μg/mL) and PI (15 μg/mL). After 15 min incubation at room temperature (RT) protected from light the cells were resuspended in AnnV-binding buffer and analysed using flow cytom-etry. HCT116 cells were incubated with pan-caspase inhibitor Apostat for 30 min at 37 °C to determine whether detected apoptosis was mediated by caspase activation. Afterwards, cells were washed with PBS and analyzed using flow cytometry. HCT116 cells were stained with 1 µg/mL of AO solution for 15 min at 37 °C to detect the presence of autophagic cell death. Afterwards cells were washed with PBS, resuspended and analyzed by flow cytometry (CyFlow® Space Partec using the PartecFloMax® software"}, "[3]": {"tested_on": "HCT116 colorectal carcinoma", "experiment": "Cell viability, MTT assay, HCT116", "format": "cell-based, human", "details": "Homo sapiens, HCT-116; 72 h, mean ± SD", "description": "as §1, §2, §3, §4, §5, §6, §7, §8"}, "[4]": {"tested_on": "HT-29 colorectal carcinoma", "experiment": "Cell viability, MTT assay, HT-29", "format": "cell-based, human", "details": "Homo sapiens, HT-29; 72 h, mean ± SD", "description": "as §1, §2, §3, §4, §5, §6, §9"}, "[5]": {"tested_on": "MDA-MB-231 triple-negative breast adenocarcinoma", "experiment": "Cell viability, MTT assay, MDA-MB-231", "format": "cell-based, human", "details": "Homo sapiens, MDA-MB-231; 72 h, mean ± SD", "description": "as §1, §2, §3, §4, §5, §6, §9"}, "A375 melanoma [6]": {"tested_on": "A375 melanoma", "experiment": "Cell viability, crystal violet (CV) assay, A375", "format": "cell-based", "details": "Homo sapiens, A-375; 72 h, mean ± SD", "description": "as §1, §2, §3, §4\nas §5, with “American Type Culture Collection (ATCC, Manassas, Virginia, USA) – Human lung carcinoma (A549), human breast adenocarcinoma (MDA-MB-231), human colorectal ade-nocarcinoma (HT-29), human colorectal carcinoma (HCT116) and human melanoma (A375).” left out\nas §9, with “HCT116 cells were stained with 1 µg/mL of AO solution for 15 min at 37 °C to detect the presence of autophagic cell death.” left out"}, "A549 lung adenocarcinoma [7]": {"tested_on": "A549 lung adenocarcinoma", "experiment": "Cell viability, crystal violet (CV) assay, A549", "format": "cell-based", "details": "Homo sapiens, 72 h, mean ± SD", "description": "as §1, §2, §3, §4\nas §5, with “American Type Culture Collection (ATCC, Manassas, Virginia, USA) – Human lung carcinoma (A549), human breast adenocarcinoma (MDA-MB-231), human colorectal ade-nocarcinoma (HT-29), human colorectal carcinoma (HCT116) and human melanoma (A375).” left out\nas §9, with “HCT116 cells were stained with 1 µg/mL of AO solution for 15 min at 37 °C to detect the presence of autophagic cell death.” left out"}, "[8]": {"tested_on": "HCT116 colorectal carcinoma", "experiment": "Cell viability, crystal violet (CV) assay, HCT116", "format": "cell-based", "details": "Homo sapiens, HCT-116; 72 h, mean ± SD", "description": "as §1, §2, §3, §4\nas §5, with “American Type Culture Collection (ATCC, Manassas, Virginia, USA) – Human lung carcinoma (A549), human breast adenocarcinoma (MDA-MB-231), human colorectal ade-nocarcinoma (HT-29), human colorectal carcinoma (HCT116) and human melanoma (A375).” left out\nas §9, with “HCT116 cells were stained with 1 µg/mL of AO solution for 15 min at 37 °C to detect the presence of autophagic cell death.” left out"}, "[9]": {"tested_on": "HT-29 colorectal carcinoma", "experiment": "Cell viability, crystal violet (CV) assay, HT-29", "format": "cell-based", "details": "Homo sapiens, 72 h, mean ± SD", "description": "as §1, §2, §3, §4\nas §5, with “American Type Culture Collection (ATCC, Manassas, Virginia, USA) – Human lung carcinoma (A549), human breast adenocarcinoma (MDA-MB-231), human colorectal ade-nocarcinoma (HT-29), human colorectal carcinoma (HCT116) and human melanoma (A375).” left out\nas §9, with “HCT116 cells were stained with 1 µg/mL of AO solution for 15 min at 37 °C to detect the presence of autophagic cell death.” left out"}, "[10]": {"tested_on": "MDA-MB-231 triple-negative breast adenocarcinoma", "experiment": "Cell viability, crystal violet (CV) assay, MDA-MB-231", "format": "cell-based", "details": "Homo sapiens, 72 h, mean ± SD", "description": "as §1, §2, §3, §4\nas §5, with “American Type Culture Collection (ATCC, Manassas, Virginia, USA) – Human lung carcinoma (A549), human breast adenocarcinoma (MDA-MB-231), human colorectal ade-nocarcinoma (HT-29), human colorectal carcinoma (HCT116) and human melanoma (A375).” left out\nas §9, with “HCT116 cells were stained with 1 µg/mL of AO solution for 15 min at 37 °C to detect the presence of autophagic cell death.” left out"}, "physchem": {"experiment": "physchem", "details": "pH 7.4"}},
  "data": [
    {"smiles": "CC(C)(C)c1cc(C=C2CCOC2=O)cc(C(C)(C)C)c1O", "note": "[KME-4, 3-([3,5-bis(1,1-dimethylethyl)-4-hydroxyphenyl]methylene)dihydro-2(3H)-furanone]", "values": [
      {"measurement": "IC50", "setting": "A375 melanoma [1]", "value": "13.8 ± 0.6", "unit": "µM"},
      {"measurement": "IC50", "setting": "A549 lung adenocarcinoma [2]", "value": "21.9 ± 0.7", "unit": "µM"},
      {"measurement": "IC50", "setting": "[3]", "value": "18.4 ± 4.6", "unit": "µM"},
      {"measurement": "IC50", "setting": "[4]", "value": "18.5 ± 1.5", "unit": "µM"},
      {"measurement": "IC50", "setting": "[5]", "value": "80.9 ± 7.3", "unit": "µM"},
      {"measurement": "IC50", "setting": "A375 melanoma [6]", "value": "36.4 ± 1.3", "unit": "µM"},
      {"measurement": "IC50", "setting": "A549 lung adenocarcinoma [7]", "value": "36.3 ± 2.8", "unit": "µM"},
      {"measurement": "IC50", "setting": "[8]", "value": "36.2 ± 1.9", "unit": "µM"},
      {"measurement": "IC50", "setting": "[9]", "value": "36.2 ± 1.9", "unit": "µM"},
      {"measurement": "IC50", "setting": "[10]", "value": "88.6 ± 2.4", "unit": "µM"},
      {"measurement": "chromatographic logD", "setting": "physchem", "value": 3.79}
    ]}
  ]
}
